Reference: PMC7686313, “Phase 1 study of mTORC1/2 inhibitor sapanisertib (TAK-228) in advanced solid tumours, with an expansion phase in renal, endometrial or bladder cancer” (British Journal of Cancer, 2020)

Experiment: Safety (adverse events, NCI CTCAE v4.0), dose-escalation phase
[1] = dose-escalation QD × 5dQW 7–13 mg
[2] = dose-escalation Total (n = 116)

Experimental: Patients who received ≥1 dose of sapanisertib were included in the safety population. […] Adverse events (AEs) were assessed using the National Cancer Institute Common Terminology Criteria for Adverse Events, v4.0. Patients were provided with a home blood-glucose meter to monitor their fasting predose blood-glucose measurements to assess hyperglycaemia as an on-target AE and PD marker.

With `CC(C)n1nc(-c2ccc3oc(N)nc3c2)c2c(N)ncnc21` [Sapanisertib] the “Fatigue, treatment-related grade ≥3 AE” value [1] was 2 (9) n (%), the “Headache, treatment-related AE” value [1] was 1 (5) n (%) and the “Hypercholesterolemia, treatment-related AE” value [1] was 1 (5) n (%). For the same compound, the “Hyperglycaemia, treatment-related AE” value [1] was 11 (50) n (%), the “Hyperglycaemia, treatment-related grade ≥3 AE” value [1] was 1 (5) n (%) and the “Hypophosphatemia, treatment-related AE” value [1] was 2 (9) n (%). The “Hypophosphatemia, treatment-related grade ≥3 AE” value [1] was 0 (0) n (%), the “Lymphopenia, treatment-related grade ≥3 AE” value [1] was 0 (0) n (%) and the “Nausea, treatment-related AE” value [1] was 13 (59) n (%). For the same compound, the “Nausea, treatment-related grade ≥3 AE” value [1] was 1 (5) n (%), the On-study deaths [1] was 0 n (%) and the “Pruritus generalised, treatment-related AE” value [1] was 1 (5) n (%). The “Pruritus generalised, treatment-related grade ≥3 AE” value [1] was 0 (0) n (%), the “Pruritus, treatment-related AE” value [1] was 3 (14) n (%) and the “Rash maculo-papular, treatment-related AE” value [1] was 2 (9) n (%). The “Rash maculo-papular, treatment-related grade ≥3 AE” value [1] was 1 (5) n (%), the “Rash, treatment-related AE” value [1] was 3 (14) n (%) and the “Rash, treatment-related grade ≥3 AE” value [1] was 0 (0) n (%). For the same compound, the “Stomatitis (includes oropharyngeal pain and mucosal inflammation), treatment-related AE” value (“Stomatitis … treatment-related AE” below) [1] was 13 (59) n (%), the “Stomatitis, treatment-related grade ≥3 AE” value [1] was 3 (14) n (%) and the “Thrombocytopenia, treatment-related grade ≥3 AE” value [1] was 0 (0) n (%). The “Vomiting, treatment-related AE” value [1] was 10 (45) n (%), the “Weight decreased, treatment-related AE” value [1] was 2 (9) n (%) and the “Acute kidney injury, treatment-related AE” value (dose-escalation QW 7–40 mg) was 0 (0) n (%). For the same compound, the “Anaemia, treatment-related AE” value (dose-escalation QW 7–40 mg) was 1 (3) n (%), the “Any AE” value (dose-escalation QW 7–40 mg) was 30 (100) n (%) and the “Any AE resulting in dose modification/interruption” value (dose-escalation QW 7–40 mg) was 13 (43) n (%). The “Any AE resulting in treatment discontinuation” value (dose-escalation QW 7–40 mg) was 4 (13) n (%), the “Any SAE” value (dose-escalation QW 7–40 mg) was 10 (33) n (%) and the “Any grade ≥3 AE” value (dose-escalation QW 7–40 mg) was 18 (60) n (%). For the same compound, the “Any treatment-related AE” value (dose-escalation QW 7–40 mg) was 28 (93) n (%), the “Any treatment-related SAE” value (dose-escalation QW 7–40 mg) was 0 n (%) and the “Any treatment-related grade ≥3 AE” value (dose-escalation QW 7–40 mg) was 8 (27) n (%). The “Asthenia, treatment-related AE” value (dose-escalation QW 7–40 mg) was 12 (40) n (%), the “Asthenia, treatment-related grade ≥3 AE” value (dose-escalation QW 7–40 mg) was 1 (3) n (%) and the “Blood creatinine increased, treatment-related AE” value (dose-escalation QW 7–40 mg) was 3 (10) n (%). For the same compound, the “Decreased appetite, treatment-related AE” value (dose-escalation QW 7–40 mg) was 8 (27) n (%), the “Dehydration, treatment-related AE” value (dose-escalation QW 7–40 mg) was 1 (3) n (%) and the “Dehydration, treatment-related grade ≥3 AE” value (dose-escalation QW 7–40 mg) was 0 (0) n (%). The “Diarrhoea, treatment-related AE” value (dose-escalation QW 7–40 mg) was 9 (30) n (%), the “Diarrhoea, treatment-related grade ≥3 AE” value (dose-escalation QW 7–40 mg) was 1 (3) n (%) and the “Dry mouth, treatment-related AE” value (dose-escalation QW 7–40 mg) was 3 (10) n (%). The “Dysgeusia, treatment-related AE” value (dose-escalation QW 7–40 mg) was 3 (10) n (%), the “Dyspepsia, treatment-related AE” value (dose-escalation QW 7–40 mg) was 1 (3) n (%) and the “Fatigue, treatment-related AE” value (dose-escalation QW 7–40 mg) was 8 (27) n (%). For the same compound, the “Fatigue, treatment-related grade ≥3 AE” value (dose-escalation QW 7–40 mg) was 2 (7) n (%), the “Headache, treatment-related AE” value (dose-escalation QW 7–40 mg) was 2 (7) n (%) and the “Hypercholesterolemia, treatment-related AE” value (dose-escalation QW 7–40 mg) was 1 (3) n (%). For the same compound, the “Hyperglycaemia, treatment-related AE” value (dose-escalation QW 7–40 mg) was 17 (57) n (%), the “Hyperglycaemia, treatment-related grade ≥3 AE” value (dose-escalation QW 7–40 mg) was 2 (7) n (%) and the “Hypophosphatemia, treatment-related AE” value (dose-escalation QW 7–40 mg) was 0 (0) n (%). The “Hypophosphatemia, treatment-related grade ≥3 AE” value (dose-escalation QW 7–40 mg) was 0 (0) n (%), the “Lymphopenia, treatment-related grade ≥3 AE” value (dose-escalation QW 7–40 mg) was 1 (3) n (%) and the “Nausea, treatment-related AE” value (dose-escalation QW 7–40 mg) was 22 (73) n (%). The “Nausea, treatment-related grade ≥3 AE” value (dose-escalation QW 7–40 mg) was 0 (0) n (%), the On-study deaths (dose-escalation QW 7–40 mg) was 1 (3) n (%) and the “Pruritus generalised, treatment-related AE” value (dose-escalation QW 7–40 mg) was 0 (0) n (%). The “Pruritus generalised, treatment-related grade ≥3 AE” value (dose-escalation QW 7–40 mg) was 0 (0) n (%), the “Pruritus, treatment-related AE” value (dose-escalation QW 7–40 mg) was 2 (7) n (%) and the “Rash maculo-papular, treatment-related AE” value (dose-escalation QW 7–40 mg) was 0 (0) n (%). The “Rash maculo-papular, treatment-related grade ≥3 AE” value (dose-escalation QW 7–40 mg) was 0 (0) n (%), the “Rash, treatment-related AE” value (dose-escalation QW 7–40 mg) was 2 (7) n (%) and the “Rash, treatment-related grade ≥3 AE” value (dose-escalation QW 7–40 mg) was 0 (0) n (%). For the same compound, the “Stomatitis … treatment-related AE” value (dose-escalation QW 7–40 mg) was 9 (30) n (%), the “Stomatitis, treatment-related grade ≥3 AE” value (dose-escalation QW 7–40 mg) was 0 (0) n (%) and the “Thrombocytopenia, treatment-related grade ≥3 AE” value (dose-escalation QW 7–40 mg) was 0 (0) n (%). For the same compound, the “Vomiting, treatment-related AE” value (dose-escalation QW 7–40 mg) was 17 (57) n (%), the “Weight decreased, treatment-related AE” value (dose-escalation QW 7–40 mg) was 2 (7) n (%) and the “Acute kidney injury, treatment-related AE” value [2] was 1 (1) n (%). For the same compound, the “Anaemia, treatment-related AE” value [2] was 5 (4) n (%), the “Any AE” value [2] was 116 (100) n (%) and the “Any AE resulting in dose modification/interruption” value [2] was 68 (59) n (%). The “Any AE resulting in treatment discontinuation” value [2] was 28 (24) n (%), the “Any SAE” value [2] was 50 (43) n (%) and the “Any grade ≥3 AE” value [2] was 76 (66) n (%). The “Any treatment-related AE” value [2] was 112 (97) n (%), the “Any treatment-related SAE” value [2] was 17 (15) n (%) and the “Any treatment-related grade ≥3 AE” value [2] was 49 (42) n (%). The “Asthenia, treatment-related AE” value [2] was 37 (32) n (%), the “Asthenia, treatment-related grade ≥3 AE” value [2] was 9 (8) n (%) and the “Blood creatinine increased, treatment-related AE” value [2] was 12 (10) n (%). For the same compound, the “Decreased appetite, treatment-related AE” value [2] was 43 (37) n (%), the “Dehydration, treatment-related AE” value [2] was 5 (4) n (%) and the “Dehydration, treatment-related grade ≥3 AE” value [2] was 1 (1) n (%). The “Diarrhoea, treatment-related AE” value [2] was 41 (35) n (%), the “Diarrhoea, treatment-related grade ≥3 AE” value [2] was 2 (2) n (%) and the “Dry mouth, treatment-related AE” value [2] was 12 (10) n (%). The “Dysgeusia, treatment-related AE” value [2] was 19 (16) n (%), the “Dyspepsia, treatment-related AE” value [2] was 3 (3) n (%) and the “Fatigue, treatment-related AE” value [2] was 35 (30) n (%). The “Fatigue, treatment-related grade ≥3 AE” value [2] was 4 (3) n (%), the “Headache, treatment-related AE” value [2] was 6 (5) n (%) and the “Hypercholesterolemia, treatment-related AE” value [2] was 11 (9) n (%). For the same compound, the “Hyperglycaemia, treatment-related AE” value [2] was 75 (65) n (%), the “Hyperglycaemia, treatment-related grade ≥3 AE” value [2] was 16 (14) n (%) and the “Hypophosphatemia, treatment-related AE” value [2] was 7 (6) n (%). The “Hypophosphatemia, treatment-related grade ≥3 AE” value [2] was 3 (3) n (%), the “Lymphopenia, treatment-related grade ≥3 AE” value [2] was 5 (4) n (%) and the “Nausea, treatment-related AE” value [2] was 71 (61) n (%). For the same compound, the “Nausea, treatment-related grade ≥3 AE” value [2] was 3 (3) n (%), the On-study deaths [2] was 4 (3) n (%) and the “Pruritus generalised, treatment-related AE” value [2] was 15 (13) n (%). The “Pruritus generalised, treatment-related grade ≥3 AE” value [2] was 3 (3) n (%), the “Pruritus, treatment-related AE” value [2] was 8 (7) n (%) and the “Rash maculo-papular, treatment-related AE” value [2] was 6 (5) n (%). For the same compound, the “Rash maculo-papular, treatment-related grade ≥3 AE” value [2] was 3 (3) n (%), the “Rash, treatment-related AE” value [2] was 20 (17) n (%) and the “Rash, treatment-related grade ≥3 AE” value [2] was 2 (2) n (%). The “Stomatitis … treatment-related AE” value [2] was 56 (48) n (%), the “Stomatitis, treatment-related grade ≥3 AE” value [2] was 8 (7) n (%) and the “Thrombocytopenia, treatment-related grade ≥3 AE” value [2] was 2 (2) n (%). For the same compound, the “Vomiting, treatment-related AE” value [2] was 53 (46) n (%) and the “Weight decreased, treatment-related AE” value [2] was 7 (6) n (%).
